This note sets out measurements from patent US6008372A, “Substituted dinaphthylmethyl and diheteroarylmethylacetyl histidine inhibitors of protein farnesyltransferase” (Warner-Lambert Company, priority 1998, dated 1999).

The test deals with T1, rat brain farnesyl protein transferase (Rattus norvegicus, UniProt Q02293+Q04631).
T1 construct: 40-fold purified rat brain farnesyl protein transferase; from tissue; host or cells: rat brain
Kind of test: Protein:farnesyltransferase (PFT/FPT) inhibitory activity assay. The format is biochemical.

Where [1] appears, read: Hepes (without 5 mM phosphate), read-out: Farnesyl Protein Transferase Inhibition, Hepes, IC50.
Where [2] appears, read: Hepes/5 mM PO4^-3, pH 7.4, read-out: Farnesyl Protein Transferase Inhibition, Hepes/5 mM PO4^-3, IC50.

Where a name gives a salt, the structure may show the parent alone. Read-outs that look alike come from different tables or passages of the source.

For the molecule `NS(=O)(=O)c1ccc(CCNC(=O)[C@H](Cc2c[nH]cn2)NC(=O)C(Cc2cccc3ccccc23)Cc2cccc3ccccc23)cc1` [Example 35], the IC50 by setting is: under setting [1], 15000 nM; under setting [2], 14000 nM.

Take `COC(=O)[C@@H](Cc1c[nH]cn1)NC(=O)C(Cc1cccc2ccccc12)Cc1cccc2ccccc12` [Example 2, (R)-3-(1H-Imidazol-4-yl)-2-(3-naphthalen-1-yl-2-naphthalen-1-ylmethyl-propionylamino)-propionic acid, methyl ester]: the IC50 runs as follows: under setting [1], 12000 nM; under setting [2], 10000 nM.

As to `O=C(N[C@@H](Cc1c[nH]cn1)C(=O)OCCc1cccs1)C(Cc1cccc2ccccc12)Cc1cccc2ccccc12` [Example 19, (S)-3-(1H-Imidazol-4-yl)-2-(3-naphthalen-1-yl-2-naphthalen-1-ylmethyl-propionylamino)-propionic acid, 2-thiophen-2-yl-ethyl ester], the IC50 under setting [1] was determined as 1100 nM and the IC50 under setting [2] was determined as 1100 nM.

Take `O=C(N[C@@H](Cc1c[nH]cn1)C(=O)OCC1CC1)C(Cc1cccc2ccccc12)Cc1cccc2ccccc12` [Example 12, (S)-3-(1H-Imidazol-4-yl)-2-(3-naphthalen-1-yl-2-naphthalen-1-ylmethyl-propionylamino)-propionic acid, cyclopropylmethyl ester]: the IC50 was found to be 400 nM under setting [1] and 250 nM under setting [2].

Turning to `O=C(N[C@@H](Cc1c[nH]cn1)C(=O)OCc1ccccc1)C(Cc1cccc2ccccc12)Cc1cccc2ccccc12` [Example 10, (S)-3-(1H-Imidazol-4-yl)-2-(3-naphthalen-1-yl-2-naphthalen-1-ylmethyl-propionylamino)-propionic acid, benzyl ester], the IC50 runs as follows: under setting [1], 4200 nM; under setting [2], 2900 nM.

Consider `O=C(N[C@@H](Cc1c[nH]cn1)C(=O)NCCCn1ccnc1)C(Cc1cccc2ccccc12)Cc1cccc2ccccc12` [Example 28], for which the IC50 reads like this: under setting [1], 8100 nM; under setting [2], 4200 nM.

Regarding `CCC(C)OC(=O)[C@H](Cc1c[nH]cn1)NC(=O)C(Cc1cccc2ccccc12)Cc1cccc2ccccc12` (mixture of isomers) [Example 14, (S)-3-(1H-Imidazol-4-yl)-2-(3-naphthalen-1-yl-2-naphthalen-1-ylmethyl-propionylamino)-propionic acid, (±)-sec-butyl ester], the IC50 is 820 nM under setting [1] and 540 nM under setting [2].

Consider `CCCCc1nc(COC(=O)[C@H](Cc2c[nH]cn2)NC(=O)C(Cc2cccc3ccccc23)Cc2cccc3ccccc23)c[nH]1` [Example 13, (S)-3-(1H-Imidazol-4-yl)-2-(3-naphthalen-1-yl-2-naphthalen-1-ylmethyl-propionylamino)-propionic acid, 2-butyl-1H-imidazol-4-ylmethyl ester], for which the IC50 by setting is: under setting [1], 2100 nM; under setting [2], 1700 nM.

With `C#CCCOC(=O)[C@H](Cc1c[nH]cn1)NC(=O)C(Cc1cccc2ccccc12)Cc1cccc2ccccc12` [Example 44, (S)-3-(1H-Imidazol-4-yl)-2-(3-naphthalen-1-yl-2-naphthalen-1-ylmethyl-propionylamino)-propionic acid, but-3-ynyl ester, trifluoroacetate salt], the IC50 was determined as 230 nM under setting [1] and 210 nM under setting [2].

As to `O=C(N[C@@H](Cc1c[nH]cn1)C(=O)NCCOCc1ccccc1)C(Cc1cccc2c1CCCC2)Cc1cccc2c1CCCC2` [Example 38, (S)-N-[1-(2-Benzyloxy-ethylcarbamoyl)-2-(1H-imidazol-4-yl)-ethyl]-3-(5,6,7,8-tetrahydro-naphthalen-1-yl)-2-(5,6,7,8-tetrahydro-naphthalen-1-ylmethyl)-propionamide], the IC50 reads like this: under setting [1], 780 nM; under setting [2], 850 nM.

Take `N#CCCOC(=O)[C@H](Cc1c[nH]cn1)NC(=O)C(Cc1cccc2c1CCCC2)Cc1cccc2c1CCCC2` [Example 49, (S)-3-(1H-Imidazol-4-yl)-2-[3-(5,6,7,8-tetrahydro-naphthalen-1-yl)-2-(5,6,7,8-tetrahydro-naphthalen-1-ylmethyl)-propionylamino]-propionic acid, 2-cyano-ethyl ester]: the IC50 is, setting by setting: under setting [1], 290 nM; under setting [2], 370 nM.

Turning to `CN(C)C(=O)[C@H](Cc1c[nH]cn1)NC(=O)C(Cc1cccc2ccccc12)Cc1cccc2ccccc12` [Example 43, (S)-N-[1-Dimethylcarbamoyl-2-(1H-imidazol-4-yl)-ethyl]-3-naphthalen-1-yl-2-naphthalen-1-ylmethyl-propionamide], the IC50 reads like this: under setting [1], 5600 nM; under setting [2], 3800 nM.

As for `O=C(N[C@@H](Cc1c[nH]cn1)C(=O)OCCN1CCOCC1)C(Cc1cccc2ccccc12)Cc1cccc2ccccc12` [Example 22, (S)-3-(1H-Imidazol-4-yl)-2-(3-naphthalen-1-yl-2-naphthalen-1-ylmethyl-propionylamino)-propionic acid, 2-morpholin-4-yl-ethyl ester], the IC50 by setting is: under setting [1], 5800 nM; under setting [2], 4300 nM.

As to `CCNC(=O)[C@H](Cc1c[nH]cn1)NC(=O)C(Cc1cccc2ccccc12)Cc1cccc2ccccc12` [Example 34, (S)-N-[1-Ethylcarbamoyl-2-(1H-imidazol-4-yl)-ethyl]-3-naphthalen-1-yl-2-naphthalen-1-ylmethyl-propionamide], the IC50 amounted to 2900 nM under setting [1] and 2000 nM under setting [2].

In the case of `NC(=O)[C@H](Cc1c[nH]cn1)NC(=O)C(Cc1cccc2ccccc12)Cc1cccc2ccccc12` [Example 24, (S)-N-[1-Carbamoyl-2-(1H-imidazol-4-yl)-ethyl]-3-naphthalen-1-yl-2-naphthalen-1-ylmethyl-propionamide], the IC50 runs as follows: under setting [1], 5300 nM; under setting [2], 3800 nM.

Take `O=C(N[C@H](Cc1c[nH]cn1)C(=O)O)C(Cc1cccc2ccccc12)Cc1cccc2ccccc12` [Example 4, (R)-3-(1H-Imidazol-4-yl)-2-(3-naphthalen-1-yl-2-naphthalen-1-ylmethyl-propionylamino)-propionic acid]: the IC50 was found to be 6100 nM under setting [1] and 19500 nM under setting [2].

On to `COC(=O)[C@H](Cc1c[nH]cn1)NC(=O)C(Cc1csc2ccccc12)Cc1csc2ccccc12` [Example 39, (S)-2-(3-Benzo[b]thiophen-3-yl-2-benzo[b]thiophen-3-ylmethyl-propionylamino)-3-(1H-imidazol-4-yl)-propionic acid, methyl ester], for which the IC50 is, setting by setting: under setting [1], 1200 nM; under setting [2], 970 nM.

`C#CCOC(=O)[C@H](Cc1c[nH]cn1)NC(=O)C(Cc1cccc2ccccc12)Cc1cccc2ccccc12` [Example 16, (S)-3-(1H-Imidazol-4-yl)-2-(3-naphthalen-1-yl-2-naphthalen-1-ylmethyl-propionylamino)-propionic acid, prop-2-ynyl ester]: the IC50 reads like this: under setting [1], 500 nM; under setting [2], 590 nM.

As to `O=C(N[C@@H](Cc1c[nH]cn1)C(=O)NCCN1CCOCC1)C(Cc1cccc2ccccc12)Cc1cccc2ccccc12` [Example 31, (S)-N-[2-(1H-Imidazol-4-yl)-1-(2-morpholin-4-yl-ethylcarbamoyl)-ethyl]-3-naphthalen-1-yl-2-naphthalen-1-ylmethyl-propionamide], the IC50 worked out at 26000 nM under setting [1] and 15000 nM under setting [2].

For `O=C(N[C@@H](Cc1c[nH]cn1)C(=O)NCCO)C(Cc1cccc2ccccc12)Cc1cccc2ccccc12` [Example 29, (S)-N-[1-(2-Hydroxy-ethylcarbamoyl)-2-(1H-imidazol-4-yl)-ethyl]-3-naphthalen-1-yl-2-naphthalen-1-ylmethyl-propionamide], the IC50 amounted to 3200 nM under setting [1] and 3700 nM under setting [2].

On to `CC(C)NC(=O)[C@H](Cc1c[nH]cn1)NC(=O)C(Cc1cccc2ccccc12)Cc1cccc2ccccc12` [Example 30, (S)-N-[2-(1H-Imidazol-4-yl)-1-isopropylcarbamoyl-ethyl]-3-naphthalen-1-yl-2-naphthalen-1-ylmethyl-propionamide], for which the IC50 under setting [1] came to 4600 nM and the IC50 under setting [2] was found to be 3500 nM.

For `COCn1cncc1C[C@H](NC(=O)C(Cc1cccc2ccccc12)Cc1cccc2ccccc12)C(=O)OC` [Example 60, (S)-3-(3-Methoxymethyl-3H-imidazol-4-yl)-2-(3-naphthalen-1-yl-2-naphthalen-1-ylmethyl-propionylamino)-propionic acid, methyl ester], the IC50 under setting [1] was determined as 930 nM and the IC50 under setting [2] is 1000 nM.

Take `C=CCCOC(=O)[C@H](Cc1c[nH]cn1)NC(=O)C(Cc1cccc2ccccc12)Cc1cccc2ccccc12` [Example 48, (S)-3-(1H-Imidazol-4-yl)-2-(3-naphthalen-1-yl-2-naphthalen-1-ylmethyl-propionylamino)-propionic acid, but-3-enyl ester]: the IC50 under setting [1] was found to be 1200 nM and the IC50 under setting [2] stood at 1300 nM.

Regarding `CNC(=O)[C@H](Cc1c[nH]cn1)NCC(Cc1cccc2ccccc12)Cc1cccc2ccccc12` [Example 63, (S)-3-(1H-Imidazol-4-yl)-N-methyl-2-(3-naphthalen-1-yl-2-naphthalen-1-ylmethyl-propylamino)-propionamide], the IC50 amounted to 200 nM under setting [1] and 240 nM under setting [2].

With `O=C(N[C@@H](Cc1c[nH]cn1)C(=O)O)C(Cc1cccc2ccccc12)Cc1cccc2ccccc12` [Example 3, (S)-3-(1H-Imidazol-4-yl)-2-(3-naphthalen-1-yl-2-naphthalen-1-ylmethyl-propionylamino)-propionic acid], the IC50 under setting [1] was 1000 nM and the IC50 under setting [2] was determined as 2300 nM.

As to `OC[C@H](Cc1c[nH]cn1)NCC(Cc1cccc2ccccc12)Cc1cccc2ccccc12` [Example 62, (S)-3-(1H-Imidazol-4-yl)-2-(3-naphthalen-1-yl-2-naphthalen-1-ylmethyl-propylamino)-propan-1-ol], the IC50 was 550 nM under setting [1] and 500 nM under setting [2].

Turning to `COC(=O)[C@H](Cc1c[nH]cn1)NCC(Cc1cccc2ccccc12)Cc1cccc2ccccc12` [Example 56, (S)-3-(1H-Imidazol-4-yl)-2-(3-naphthalen-1-yl-2-naphthalen-1-ylmethyl-propylamino)-propionic acid methyl ester], the IC50 under setting [1] turned out to be 370 nM and the IC50 under setting [2] was 360 nM.
